Data published in publication PMC4721062, “Oxadiazole-2-oxides may have other functional targets, in addition to SjTGR, through which they cause mortality in Schistosoma japonicum” (Parasites & Vectors, 2016).
Where two headings read alike, the source gives them in different places.

Key:
[1] = Cytotoxicity assay on Hela cells (MTT); assay type: cell-based; settings: human
Method: Cytotoxicity assays were performed using Hela cells. Cells in the exponential growth phase were collected by centrifugation and a concentration of 4–5 × 10^4/mL was created. 100 μL of the cell suspension was added to each well of a 96-well plate and cultured overnight at 37 °C in a humid atmosphere with 5 % CO2. Oxadiazole-2-oxides (at 10, 20, 40, 80 and 160 μM) were added. Each concentration was assayed in triplicate, and control wells (no cells and no drugs) were assayed at the same time. The “no cell” control wells only contained RPMI 1640 medium, MTT, DMSO, and oxadiazole-2-oxides. The “no drug” control wells contained the Hela cells, RPMI 1640 medium, MTT and DMSO. The cells were cultured for 48 h at 37 °C in a humid atmosphere with 5 % CO2. Then, 20 μL of 5 mg/mL MTT was added to each well and the culture conditions were maintained for 4 h. After this point, the medium was removed and 150 μL DMSO was added into each well to dissolve any crystallisation. The value of absorbance at 570 nm of each well was measured (at 570 nm) with a microplate reader to assess the toxic effect of the oxadiazole-2-oxides on the vertebrate cells.

[2] = system: adult S. japonicum in mice; experiment: Treatment of infected mice at adult worm stage; assay type: in vivo, Schistosoma japonicum (ICR mice); settings: for Number of eggs per gram of liver (Mean ± SD) / Number of worms (Mean ± SD) / Egg reduction rate / Worm reduction rate: mice, 10 mg/kg i.p. daily for 5 days from day 35 post-infection; for Number of eggs per gram of liver (Mean ± SD) / Number of worms (Mean ± SD): sacrificed day 42; for Egg reduction rate / Worm reduction rate: versus control
Method: (§1) The abdominal skin of each mouse (ICR, female, 22–24 g) was exposed to 20 S. japonica cercariae (as described above). The mice were intraperitoneally injected with 10 mg/kg oxadiazole-2-oxides daily for 5 days, beginning either 7 or 35 days post-infection. Control mice were treated with 10 mg/kg of the carrier medium. All mice were sacrificed 42 days post-infection. The worm burden of each mouse was confirmed by counting the number of worms observed from a portal vein perfusion. The mouse livers were digested overnight with 5 % potassium hydroxyl solution at 37 °C and the eggs in the liver tissue were counted under an inverted phase contrast microscope. The worm and egg reduction rates were calculated using the following formulas: Wormreductionrate%=meannumberofadultwormspermouseincontrolgroup−meannumberofadultwormspermouseinexperimentalgroup/meannumberofadultwormspermouseincontrolgroup. Eggreductionrate%=meannumberofeggspermouseincontrolgroup−meannumberofeggspermouseinexperimentalgroup/meannumberofeggspermouseincontrolgroup.

juvenile S. japonicum = experiment: microbe, parasite or virus in culture; assay type: cell-based; settings: for mortality at 100 µM / killing at 2 µM / killing at 5 µM / killing at 50 µM / mortality at 50 µM: Schistosoma japonicum; for mortality at 100 µM / mortality at 50 µM: read-out: Mortality of juvenile worms; for killing at 2 µM / killing at 5 µM / killing at 50 µM / Killing activity 24hr / Killing activity 48hr / Killing activity 72hr: juvenile worms; for Killing activity 24hr / Killing activity 48hr / Killing activity 72hr: 10 μM
How it was run: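 Juvenile S. japonicum, 20–30 tail-shed cercariae per well, were exposed to compounds at 2, 5, 10 and 50 μM in RPMI 1640 with 10% FBS and HEPES. Survival was scored microscopically at 24, 48 and 72 h, with death defined by disrupted internal structure or tegument or 1 min without motility. % D is dead/total, averaged over three experiments.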

[3] = system: juvenile S. japonicum in mice; experiment: Treatment of infected mice at juvenile worm stage; assay type: in vivo, Schistosoma japonicum (ICR mice); settings: 10 mg/kg i.p. daily for 5 days from day 7 post-infection; for Number of eggs per gram of liver (Mean ± SD) / Number of worms (Mean ± SD): sacrificed day 42; for Egg reduction rate / Worm reduction rate: versus control, 10 mg/kg
Method: as §1

S. mansoni = settings: compared with 10 μM, 72 h data; cited from earlier work
[4] = 24 h, read-out: Killing activity 24hr
[5] = 48 h, read-out: Killing activity 48hr
[6] = 72 h, read-out: Killing activity 72hr

Structure (SMILES)	viability at 72 h, 80 µM [1] [%]	Number of eggs per gram of liver (Mean ± SD) [2]	Number of worms (Mean ± SD) [2]	killing at 2 µM (juvenile S. japonicum; [4]) [%]	killing at 2 µM (juvenile S. japonicum; [5]) [%]	killing at 2 µM (juvenile S. japonicum; [6]) [%]	killing at 5 µM (juvenile S. japonicum; [4]) [%]	killing at 5 µM (juvenile S. japonicum; [5]) [%]	killing at 5 µM (juvenile S. japonicum; [6]) [%]	killing at 50 µM (juvenile S. japonicum; [4]) [%]	killing at 50 µM (juvenile S. japonicum; [5]) [%]	killing at 50 µM (juvenile S. japonicum; [6]) [%]	Killing activity 24hr (juvenile S. japonicum; 24 h) [%D]	Killing activity 48hr (juvenile S. japonicum; 48 h) [%D]	Killing activity 72hr (juvenile S. japonicum; 72 h) [%D]	Number of eggs per gram of liver (Mean ± SD) [3]	Number of worms (Mean ± SD) [3]	Worm reduction rate [3]	mortality at 50 µM (juvenile S. japonicum; 24 h) [%]	further results
COc1ccc(-c2no[n+]([O-])c2CO)cc1 [Compound 4a]	91	7730.8 ± 1457.8 (P < 0.05^**)	4.0 ± 2.5 (P > 0.05^**)	29.4	35.3	44.1	36.2	48.9	53.2	56.8	88.6	90.9	26.7	37.8	58.9	4,258.9 ± 1,910.0 (P > 0.05^**)	1.3 ± 0.8 (P > 0.05^**)	87.7 (P < 0.01^*) %	–	Reduction in the female worms ([2]; mice treated at adult worm stage (data not shown)): 36.8%; Egg reduction rate ([2]; 10 mg/kg): 3.8 (P > 0.05^*) %; Worm reduction rate ([2]; 10 mg/kg): 66.7 (P < 0.01^*) %; mortality at 100 µM (juvenile S. japonicum; 72 h): 90 ± 2.8%; Egg reduction rate [3]: 47.0 (P < 0.05^*) %
Cc1ccc(-c2no[n+]([O-])c2CO)cc1 [Compound 4b]	96	7007.8 ± 2420.2 (P < 0.05^**)	9.0 ± 3.8 (P < 0.05^**)	35.2	35.2	42.3	42.9	46.9	51	76.5	88.2	100	48.0	50.0	60.0	8,669.2 ± 2,255.8 (P < 0.05^**)	1.8 ± 1.5 (P > 0.05^**)	83.1 (P < 0.01^*) %	> 70	Egg reduction rate [2]: 12.8 (P > 0.05^*) %; Worm reduction rate [2]: 25.0 (P > 0.05^*) %; mortality at 100 µM (juvenile S. japonicum; 72 h): 100%
COc1ccc(-c2no[n+]([O-])c2C#N)cc1 [Compound 7a]	–	–	–	14.6	29.2	41.7	15.7	39.2	39.2	46.2	53.3	70	36.7	36.7	60.0	–	–	–	–	Mortality in adult worms of S. mansoni (S. mansoni): 100.0%
Cc1ccc(-c2no[n+]([O-])c2C#N)cc1 [Compound 7b]	–	–	–	16	26.6	31.9	21.1	26.3	36.8	47.5	55.9	57.6	23.8	33.3	57.1	–	–	–	–	Mortality in adult worms of S. mansoni (S. mansoni): 70.0%
N#Cc1c(-c2ccc(OCCBr)cc2)no[n+]1[O-] [Compound 12]	–	–	–	17.3	17.3	19.2	16.4	18.2	23.6	33.3	36.2	72.5	21.3	21.3	28.8	–	–	–	< 30	–
N#Cc1c(-c2ccc(OCCCBr)cc2)no[n+]1[O-] [Compound 13]	80	8201.4 ± 2066.0 (P < 0.05^**)	8.6 ± 2.4 (P < 0.05^**)	13	13	13	14.2	15.5	15.5	23.3	29.9	41	19.0	19.0	20.3	3,808.9 ± 1,288.9 (P > 0.05^**)	1.7 ± 0.7 (P > 0.05^**)	84.6 (P < 0.01^*) %	< 30	Worm reduction rate [2]: 28.3 (P < 0.05^*) %; mortality at 50 µM (juvenile S. japonicum; 72 h): 41 ± 6.3%; Egg reduction rate [3]: 52.6 (P < 0.05^*) %
N#Cc1c(-c2ccc(OCc3ccccc3)cc2)no[n+]1[O-] [Compound 19]	–	–	–	15.1	15.1	17	12.5	19.2	28.8	82.5	92.8	100	43.8	50.0	65.0	–	–	–	–	–
C#CCOc1ccc(-c2no[n+]([O-])c2C#N)cc1 [Compound 20]	87	10094.7 ± 1691.0 (P < 0.05^**)	4.7 ± 1.1 (P > 0.05^**)	8.5	14.2	19.9	20	24	34	45.6	48.5	67.6	43.4	45.3	52.8	7,767.5 ± 2,676.6 (P < 0.05^**)	3.0 ± 0.9 (P < 0.05^**)	69.5 (P < 0.01^*) %	–	Worm reduction rate [2]: 61.1 (P < 0.01^*) %; mortality at 100 µM (juvenile S. japonicum; 72 h): 67.6 ± 4.5%; Egg reduction rate [3]: 3.3 (P > 0.05^*) %
N#Cc1c(-c2ccc(COc3ccccc3)cc2)no[n+]1[O-] [Compound 23]	–	–	–	6	16.1	17.7	9	15	20	69.9	70.8	77	45.0	60.0	66.7	–	–	–	> 70	–
N#Cc1c(-c2ccc(COc3ccc(C=O)cc3)cc2)no[n+]1[O-] [Compound 26]	–	–	–	36.4	36.4	50.9	48.9	48.9	53.2	46.3	63.4	85.4	56.1	61.0	80.5	–	–	–	–	–
Cc1ccc2cccc(OCc3ccc(-c4no[n+]([O-])c4C#N)cc3)c2n1 [Compound 28]	–	–	–	8.2	13.7	19.2	14.8	21.6	26.1	31.9	36.2	39.1	14.5	17.4	30.4	–	–	–	< 30	–
